Measurements as given in US20020006661A1, “Controlling gene expression in living cells” (University of Massachusetts, a Massachusetts corporation, priority 1998, published 2002).

What was measured:
[1] = test system: H2-RSETA mRNA (H10 and H19 in tandem in the 5′ UTR); test: Wheat germ in vitro translation of H2-RSETA mRNA; assay type: biochemical; details: 0, 40 or 80 μM H33258, wheat germ extract
Procedure: (§1) FIG. 10. is a histogram summarizing SDS-PAGE densitometry data from in vitro translation experiments. RNA transcripts containing 0 (RSETA) or 2 copies of an H33258 aptamer (H2-RSETA) were translated in a wheat germ extract in the presence of ^35S-methionine and 0, 40 or 80 μM H33258. Protein products were subjected to SDS-PAGE and quantitated by densitometry. For each transcript, translation in the absence of drug was set at 100%.
(§2) In vitro transcription reactions contained 5 μg pRSETA (or RSET derivative), 0.5 mM m^7G(5′)G, 0.5 mM ATP, CTP, UTP, 0.05 mM GTP, 10 mM DTT and 40 U T7 RNA polymerase in 50 μl of a solution of 40 mM Tris-HCl pH 7.5, 6 mM MgCl2, 2 mM spermidine, 10 mM NaCl. Following incubation for 1 hour at 37° C., RNA was purified by phenol:chloroform extraction, ethanol precipitation and resuspended in 30 μl H2O. Translation reactions were carried out in 10 μl containing 5 μl wheat germ extract, 0.8 μl 1 mM amino acid mixture (minus methionine), 2 μl of RNA transcript (described above), 0.5 μl [^35S] methionine (1200 Ci/mmole) and 0-80 μM drug. Reactions were incubated at 25{square root} C. for 15 minutes and terminated by addition of 2X sample loading buffer. Translation products were separated by electrophoresis on an 18% polyacrylamide gel, visualized by autoradiography, and quantitated by densitometry.

[2] = cited from earlier work; for Cell permeability: known
[3] = known; cited from earlier work
[4] = test system: SVH2β Gal (β-galactosidase reporter with H10 and H19 in the 5′ UTR) in CHO cells; test: β-galactosidase reporter expression in transfected CHO cells, SVH2β gal; assay type: cell-based; details: 24 hours, 0, 5 or 10 μM H33342, dose-dependent
Procedure: (§3) FIG. 11 is a histogram summarizing data from in vivo expression experiments. H33258 aptamers H10 and H19 were cloned in tandem into the 5′ UTR of a β-galactosidase reporter gene (SVβ gal; Promega) to generate SVH2β gal. CHO cells were cotransfected with 1 μg SVβ gal or SVH2β gal and 1 μg of a luciferase expression vector (pGL3). Transfected cells were grown in the presence of […]. Twenty-four hours after transfection, cell extracts were prepared, and β-galactosidase and luciferase activities were determined.
(§4) To test whether this small molecule-aptamer interaction could be used to control gene expression in vivo, one copy of H10 and H19 were inserted into the 5′ UTR of a mammalian β-galactosidase expression plasmid SVβ Gal (Promega), generating the construct SVH2β gal. CHO cells were cotransfected with SVH2β Gal or as a control the parental vector, SVβ Gal, and a luciferase reporter gene to provide an internal control. Following transfection, cells were grown for 24 hours in the presence of 0, 5 or 10 μM H33342 and analyzed for β-galactosidase and luciferase activities.
(§5) H33258 aptamers, H10 and H19, were cloned in tandem into the 5′ UTR of a β-galactosidase reporter gene (SVβ gal, Promega) to generate SVH2β gal. […] 24 hours post-transfection cell extracts were prepared and β-galactosidase and luciferase activities were determined.

[5] = test system: parental expression vector SVβ Gal in CHO cells; test: β-galactosidase reporter expression in transfected CHO cells, parental SVβ Gal; assay type: cell-based; details: 24 hours, 0, 5 or 10 μM H33342, data not shown
Procedure: as §3, §4, §5

[6] = test system: luciferase reporter (pGL3) in CHO cells; test: Luciferase internal control reporter in transfected CHO cells; assay type: cell-based; details: 24 hours, 0, 5 or 10 μM H33342
Procedure: as §3, §4, §5

[7] = test system: E. coli BL-21 cells expressing RSETA, kan or tob aptamers; test: Growth of E. coli expressing antibiotic aptamers in antibiotic-containing medium; assay type: cell-based; details: 10 mM antibiotic, liquid culture; for Growth of bl-kan1 (kanamycin aptamer) in the presence of antibiotic: strain bl-kan1; for Growth of bl-tob1 (tobramycin aptamer) in the presence of antibiotic: strain bl-tob1
Procedure: FIGS. 3A-3E are growth curves of E. coli expressing antibiotic aptamers. Overnight cultures of BL-21 cells transformed with plasmids expressing RSETA, tob1, tob3, kan1 or kan3 were diluted 100-fold into medium containing the indicated concentration of aminoglycoside antibiotic. Optical density (660 nm) was measured at fixed intervals over 8 hours of growth at 37° C.
As an initial test for the ability of these aptamers to function in vivo, we asked whether following expression in E. coli the aptamer would sequester the cognate antibiotic thereby conferring a specific drug-resistant phenotype. Toward this end, one or three copies of the kanamycin A (kan) or the tobramycin (tob) aptamer were cloned into the T7 RNA polymerase-driven expression vector PRSETA (Invitrogen), and transformed into a bacterial strain containing an IPTG-inducible T7 RNA polymerase. Bacterial strains were grown in liquid culture overnight and then diluted into antibiotic-containing medium. In the absence of drug, bacterial strains expressing no aptamer (bl-RSETA), the kanamycin aptamer (bl-kan1), or the tobramycin aptamer (bl-tob1) grew similarly (FIG. 3A). […] The partial-resistance of bl-kan1 to tobramycin (our unpublished data).

[8] = test system: tob3-RSETA mRNA (three copies of the tob aptamer in the 5′ UTR); test: Wheat germ in vitro translation of tob3-RSETA mRNA; assay type: biochemical; details: 0, 30 or 60 μM drug, wheat germ extract
Procedure: (§6) FIG. 4. is a histogram showing percent translation of mRNA in a wheat germ in vitro translation system containing 0 (RSETA) or 3 copies of the tob aptamer cloned into the 5′ UTR of RSETA (tob3-RSETA) and 0, 30 or 60 μM tobramycin or kanamycin A. Protein products were analyzed by SDS-PAGE and quantitated by densitometry. For each transcript, translation in the absence of drug was set at 100%.
A test mRNA was constructed containing three copies of the tob aptamer inserted in the 5′ UTR of RSETA (tob3-RSETA). In vitro translation reactions were performed in the presence of 0, 30 or 60 μM tobramycin or kanamycin A.
as §2, with “Reactions were incubated at 25{square root} C. for 15 minutes and terminated by addition of 2X sample loading buffer.” left out

control RSETA mRNA = test: Wheat germ in vitro translation of control RSETA mRNA; assay type: biochemical; details: all concentrations tested, wheat germ extract
Procedure: as §6, §1
A test mRNA was constructed containing three copies of the tob aptamer inserted in the 5′ UTR of RSETA (tob3-RSETA). […]
In vitro transcription reactions contained 5 μg pRSETA (or RSET derivative), 0.5 mM m^7G(5′)G, 0.5 mM ATP, CTP, UTP, 0.05 mM GTP, 10 mM DTT and 40 U T7 RNA polymerase in 50 μl of a solution of 40 mM Tris-HCl pH 7.5, 6 mM MgCl2, 2 mM spermidine, 10 mM NaCl. […] Translation products were separated by electrophoresis on an 18% polyacrylamide gel, visualized by autoradiography, and quantitated by densitometry.

Row | Structure (SMILES) | In vitro translation of H2-RSETA mRNA [1] | Cell permeability [2] | Toxicity [3] | Reduction of β-galactosidase activity from SVH2β Gal [4] | Expression of parental expression vector SVβ Gal [5] | Expression of the luciferase reporter [6] | Cell permeability relative to H33258 [2] | Growth of bl-RSETA (no aptamer) in the presence of antibiotic ([7]; strain bl-RSETA) | Growth of bl-kan1 (kanamycin aptamer) in the presence of antibiotic [7] | Growth of bl-tob1 (tobramycin aptamer) in the presence of antibiotic [7] | In vitro translation of tob3-RSETA mRNA [8] | In vitro translation of control RSETA mRNA (control RSETA mRNA)
1 | CN1CCN(c2ccc3[nH]c(-c4ccc5[nH]c(-c6ccc(O)cc6)nc5c4)nc3c2)CC1 [H33258] | inhibited in vitro translation of H2-RSETA | cell-permeable | relatively non-toxic |  |  |  |  |  |  |  |  | 
2 | CCOc1ccc(-c2nc3ccc(-c4nc5ccc(N6CCN(C)CC6)cc5[nH]4)cc3[nH]2)cc1 [H33342] |  | cell-permeable | relatively non-toxic | greater than 90% | not inhibited | not inhibited | approximately ten-fold more cell-permeable |  |  |  |  | 
3 | NC[C@H]1O[C@H](O[C@H]2[C@H](O)[C@@H](O[C@H]3O[C@H](CO)[C@@H](O)[C@H](N)[C@H]3O)[C@H](N)C[C@@H]2N)[C@H](O)[C@@H](O)[C@@H]1O [kanamycin A] |  |  |  |  |  |  |  | neglible | grew to saturation | neglible | not inhibited | unaffected
4 | NC[C@H]1O[C@H](O[C@H]2[C@H](O)[C@@H](O[C@H]3O[C@H](CO)[C@@H](O)[C@H](N)[C@H]3O)[C@H](N)C[C@@H]2N)[C@H](N)C[C@@H]1O [tobramycin] |  |  |  |  |  |  |  |  | grew to a sub-saturating level | grew to saturation | inhibited in vitro translation of the tob3-RSETA mRNA in a dose-dependent fashion | unaffected
